Source: article PMC6862331, “Identification of Isoform-Selective Ligands for the Middle Domain of Heat Shock Protein 90 (Hsp90)” (International Journal of Molecular Sciences, 2019)
“And” between values parts separate entries of the source, which are not always exact repeats. Equal values may be shown once. “Also recorded” adds a separate entry of the source. Read-outs that look alike come from different tables or passages of the source.

Columns and labels:
[1] = molecular target: T1, recombinant human Hsp90β MD (Homo sapiens, UniProt P08238); assay: Intrinsic tryptophan fluorescence spectroscopy (quenching screen and KD titration) with Hsp90β MD; type: binding; details: for binding to Hsp90β MD in initial screening: less than 40% quenching eliminated; for Kd: titration, 20 µM Hsp90 MD, 20 mM Tris pH 7.5, 0.2 M KCl, triplicate, error = SD; for selectivity (preference) for the β-isoform over the α-isoform in terms of KD: Hsp90β MD vs Hsp90α MD
T1 construct: made in house; host or cells: Escherichia coli BL21 (DE3)
Source text: (§1) As a result of virtual screening, 24 hit compounds (Figure 1 and Table S3) were selected for further experimental testing against recombinant human Hsp90α MD (residues 294 to 554, Table S4) and human Hsp90β MD (residues 286 to 546, Table S5). As there are tryptophan residues located within the defined binding pocket in both Hsp90α MD and Hsp90β MD, intrinsic tryptophan fluorescence quenching experiment was used to screen the binding of our virtual hits to the proteins. Initial screening experiments were conducted by using 20 μM of Hsp90α/β MD and 1 mM of compounds. Molecules that gave less than 40% fluorescence quenching were eliminated.
(§2) We then focussed on studying the binding of our compounds (5, 8, 9, 10, 12, 17, 22, 24) to both Hsp90α MD and Hsp90β MD. Titration experiments were performed to quantify the binding affinity (dissociation constant, KD) to Hsp90α MD and Hsp90β MD (Table 1 and Figures S3–S10). The KD values of gambogic acid were also measured as control (Table 1 and Figure S11). […] Our KD values for gambogic acid are in agreement with previous studies (~10-fold preference). The selectivity for the β-isoform (over α-isoforms) was progressively less for weaker binders.
(§3) Fluorescence was measured using EnSpire Multimode Plate Reader (PerkinElmer, Melbourne, Australia). Experiments were performed in 20 µM of Hsp90 MD in 20 mM Tris (pH 7.5) and 0.2 M KCl. Different concentration of the virtual hits (InterBioScreen, Bar, Montenegro) or gambogic acid were added to the mixture. Excitation wavelength was 280 nm and intrinsic fluorescence was measured between 300 and 450 nm. The control experiment with Hsp90 MD on its own was conducted. Background fluorescence arising from the compound was subtracted to generate the final spectrum. The total volume per well of the 96-well microplate was 30 µL. Non-linear curve fitting of Equation (1) to the data was conducted using SigmaPlot 14.0 (Systat Software, San Jose, CA, USA). All tests were conducted in triplicate and the errors shown are standard deviation. KD was calculated for each binder using Equation (1), where Δobs is the changes in fluorescence intensity from the titrations, Δmax is the maximum fluorescence intensity change, [LT] represents the titrated ligand concentration, and [PT] indicates the protein concentration.
(§4) (1) Δobs=Δmax×(KD+[LT]+[PT])−(KD+[LT]+[PT])^2−(4×[PT]×[LT])/2×[PT]
(§5) Supplementary Figure S2. Screening of the virtual hits (1 mM) to Hsp90α/β MD (20 μM) by intrinsic protein fluorescence. Percentage fluorescence quenching was calculated with the […]
(§6) % Fluorescence quenching = (Iprotein − Iprotein+compound) […]
(§7) In which Iprotein denotes intrinsic fluorescence intensity of the protein in the absence of any compound, Iprotein+compound denotes intrinsic fluorescence intensity of the protein in the presence of the compound. Experiments were conducted in triplicate. Errors shown are standard […]
(§8) (1 picture or pasted object on this page, not shown here)

[2] = molecular target: T2, recombinant human Hsp90α MD (Homo sapiens, UniProt P07900); assay: Intrinsic tryptophan fluorescence spectroscopy (quenching screen and KD titration) with Hsp90α MD; type: binding; details: for binding to Hsp90α MD in initial screening: less than 40% quenching eliminated
T2 construct: made in house; host or cells: Escherichia coli BL21 (DE3)
Source text: as §1, §2, §3, §4, §5, §6, §7, §8

[3] = molecular target: T1, recombinant human Hsp90β MD; design: method as in PMID 27466407; details: cited from earlier work
[4] = titration, 20 µM Hsp90 MD, 20 mM Tris pH 7.5, 0.2 M KCl, triplicate, error = SD, read-out: KD to Hsp90α MD
[5] = initial screen, 1 mM compound, 20 μM protein

T1 sequence (P08238 286-546): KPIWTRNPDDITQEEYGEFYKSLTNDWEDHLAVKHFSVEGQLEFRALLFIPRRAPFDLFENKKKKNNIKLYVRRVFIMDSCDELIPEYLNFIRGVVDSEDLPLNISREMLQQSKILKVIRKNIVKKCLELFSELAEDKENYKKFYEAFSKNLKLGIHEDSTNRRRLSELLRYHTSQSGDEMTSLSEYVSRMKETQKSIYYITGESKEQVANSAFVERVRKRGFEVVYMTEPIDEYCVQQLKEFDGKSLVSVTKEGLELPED

| Compound | binding to Hsp90β MD in initial screening ([1]; 1 mM compound, 20 μM protein) | Kd ([1]; read-out: KD to Hsp90β MD) | binding to Hsp90α MD in initial screening ([2]; 1 mM compound, 20 μM protein) | Kd [2, 4] [µM] | selectivity (preference) for the β-isoform over the α-isoform in terms of KD [1] | preference for Hsp90β MD over Hsp90α MD, previous study [3] | Kd ([1]; KD to Hsp90β MD) | fluorescence quenching of Hsp90β MD [1, 5] | Kd [2] [µM] | fluorescence quenching of Hsp90α MD [2, 5] |
| --- | --- | --- | --- | --- | --- | --- | --- | --- | --- | --- |
| CCC[C@@H](NC(=O)C(C)Oc1ccc2c(-c3ccccc3)cc(=O)oc2c1)C(=O)O (stereo partly drawn) [Compound 5, (2R)-2-(2-((2-oxo-4-phenyl-2H-chromen-7-yl)oxy)propanamido)pentanoic acid] | bind to both Hsp90α MD and Hsp90β MD | 136 ± 1 µM | bind to both Hsp90α MD and Hsp90β MD | 470 ± 2 |  |  |  |  |  |  |
| CC(C)=CCC[C@]1(C)C=Cc2c(O)c3c(c(CC=C(C)C)c2O1)O[C@]12C(=C[C@@H]4C[C@H]1C(C)(C)O[C@@]2(C/C=C(/C)C(=O)O)C4=O)C3=O [Gambogic acid, reference compound] |  | 33 ± 2 µM |  | 195 ± 5 |  | ~ 7 fold |  |  |  |  |
| COc1cc(C(=O)NC(Cc2ccccc2)C(=O)O)cc(OC)c1OC (centres unmarked) [Compound 22, (3,4,5-trimethoxybenzoyl)phenylalanine] | bind to both Hsp90α MD and Hsp90β MD | > 500 µM | bind to both Hsp90α MD and Hsp90β MD | 459 ± 7 | slight preference for Hsp90α MD |  |  |  |  |  |
| CN[C@H]1CCc2cc(OC)c(OC)c(OC)c2-c2ccc(NCc3cccnc3)c(=O)cc21 [Compound 10, (S)-1,2,3-trimethoxy-7-(methylamino)-10-((pyridin-3-ylmethyl)amino)-6,7-dihydrobenzo[a]heptalen-9(5H)-one] |  |  |  |  | bind stronger to Hsp90β MD than to Hsp90α MD |  | > 100 µM and 164 µM | ~ 90% | > 500 | ~ 20% |
| CC(=O)N[C@H]1[C@H](Oc2ccc3c(=O)c(-c4ccc5c(c4)OCCCO5)c(C)oc3c2)O[C@H](CO)[C@@H](O)[C@@H]1O [Compound 17, N-((2S,3R,4R,5S,6R)-2-((3-(3,4-dihydro-2H-benzo[b][1,4]dioxepin-7-yl)-2-methyl-4-oxo-4H-chromen-7-yl)oxy)-4,5-dihydroxy-6-(hydroxymethyl)tetrahydro-2H-pyran-3-yl)acetamide] | bind to both Hsp90α MD and Hsp90β MD | > 100 µM and 285 µM | bind to both Hsp90α MD and Hsp90β MD | 506 ± 4 | bind stronger to Hsp90β MD than to Hsp90α MD |  |  |  |  |  |

Second part, led by results:

| binding to Hsp90β MD in initial screening ([1]; 1 mM compound, 20 μM protein) | Kd ([1]; read-out: KD to Hsp90β MD) | binding to Hsp90α MD in initial screening ([2]; 1 mM compound, 20 μM protein) | Kd [2, 4] [µM] | Compound | selectivity (preference) for the β-isoform over the α-isoform in terms of KD [1] | preference for Hsp90β MD over Hsp90α MD, previous study [3] | Kd ([1]; KD to Hsp90β MD) | fluorescence quenching of Hsp90β MD [1, 5] | Kd [2] [µM] | fluorescence quenching of Hsp90α MD [2, 5] |
| --- | --- | --- | --- | --- | --- | --- | --- | --- | --- | --- |
| bind to both Hsp90α MD and Hsp90β MD | > 500 µM | bind to both Hsp90α MD and Hsp90β MD | 284 ± 4 | O=C(CNC(=O)OCc1ccccc1)Oc1cc(O)c2c(=O)cc(-c3ccccc3)oc2c1 [Compound 8, 5-hydroxy-4-oxo-2-phenyl-4H-chromen-7-yl ((benzyloxy)carbonyl)glycinate] | slight preference for Hsp90α MD |  |  |  |  |  |
| bind to both Hsp90α MD and Hsp90β MD | < 20 µM | bind to both Hsp90α MD and Hsp90β MD | 92 ± 0.8 | O=C(CC1=C(O)C(=O)c2ccccc2C1=O)c1ccccc1 [Compound 12, 2-hydroxy-3-(2-oxo-2-phenylethyl)naphthalene-1,4-dione] | bind stronger to Hsp90β MD than to Hsp90α MD; also recorded: seven-fold |  |  |  |  |  |
| bind to both Hsp90α MD and Hsp90β MD | > 100 µM and 265 µM | bind to both Hsp90α MD and Hsp90β MD | 661 ± 3 | COc1cc(C2NC(C(=O)O)Cc3c2[nH]c2ccc(OCc4ccccc4)cc32)cc(OC)c1OC (centres unmarked) [Compound 24, 6-(benzyloxy)-1-(3,4,5-trimethoxyphenyl)-2,3,4,9-tetrahydro-1H-pyrido[3,4-b]indole-3-carboxylic acid] | bind stronger to Hsp90β MD than to Hsp90α MD |  |  |  |  |  |
| bind to both Hsp90α MD and Hsp90β MD | 57 ± 1 µM | bind to both Hsp90α MD and Hsp90β MD | 299 ± 3 | CCC(C)[C@@H](NC(=O)C(C)Oc1ccc2c(-c3ccccc3)cc(=O)oc2c1)C(=O)O (stereo partly drawn) [Compound 9, (2R)-3-methyl-2-(2-((2-oxo-4-phenyl-2H-chromen-7-yl)oxy)propanamido)pentanoic acid] |  |  |  |  |  |  |
